Assay results: ChEMBL document CHEMBL1201862, “PubChem BioAssay data set” (2004)
The source made the active and inactive calls.

What was measured:
[1] = molecular target: Adenosylmethionine-8-amino-7-oxononanoate aminotransferase (Mycobacterium tuberculosis, UniProt P9WQ81); test: Mycobacterium tuberculosis BioA enzyme inhibitor Measured in Biochemical System Using Plate Reader - 2163-02_Inhibitor_Dose_CherryPick_Activity.; format: functional, Mycobacterium tuberculosis UT205
[2] = AlphaScreen signal interference compounds, dose response, artefact control for ARNT-TACC3 interaction inhibitor project, biochemical, luminescence, cherry-pick (AID 651705); format: functional;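 note: AlphaScreen bead proximity signal that flags compounds interfering with the detection technology; potency reflects signal decrease which marks the compound as an assay artifact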
[3] = ARNT/TACC3 interaction disruptors, potency, confirmation, biochemical, AlphaScreen, cherry-picked samples (AID 651703); format: functional, Homo sapiens;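 note: His-tagged ARNT PAS-B domain paired with GST-TACC3 E629A dimer coactivator fragment; potency of inhibitors that break up the complex and lower AlphaScreen signal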
[4] = molecular target: T1, Corticotropin-releasing factor receptor 2/Corticotropin-releasing factor-binding protein (Homo sapiens, UniProt P24387+Q13324); test: Dose Response confirmation of uHTS hits for small molecule antagonists of the CRF-binding protein and CRF-R2 receptor complex.; format: functional; conditions: read-out: IC50_Mean
T1 sequence (Q13324 whole entry): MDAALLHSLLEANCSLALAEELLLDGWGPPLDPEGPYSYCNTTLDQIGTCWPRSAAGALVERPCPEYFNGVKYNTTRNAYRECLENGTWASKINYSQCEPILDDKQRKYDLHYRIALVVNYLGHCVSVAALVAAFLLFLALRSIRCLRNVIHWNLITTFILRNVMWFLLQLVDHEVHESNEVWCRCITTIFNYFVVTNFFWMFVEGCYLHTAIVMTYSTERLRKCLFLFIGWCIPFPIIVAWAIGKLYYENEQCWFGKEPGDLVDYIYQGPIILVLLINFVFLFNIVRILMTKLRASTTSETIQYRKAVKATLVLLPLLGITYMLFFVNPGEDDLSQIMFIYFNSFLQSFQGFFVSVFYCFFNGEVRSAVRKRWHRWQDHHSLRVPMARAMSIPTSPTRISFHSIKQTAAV
T1 sequence (P24387 whole entry): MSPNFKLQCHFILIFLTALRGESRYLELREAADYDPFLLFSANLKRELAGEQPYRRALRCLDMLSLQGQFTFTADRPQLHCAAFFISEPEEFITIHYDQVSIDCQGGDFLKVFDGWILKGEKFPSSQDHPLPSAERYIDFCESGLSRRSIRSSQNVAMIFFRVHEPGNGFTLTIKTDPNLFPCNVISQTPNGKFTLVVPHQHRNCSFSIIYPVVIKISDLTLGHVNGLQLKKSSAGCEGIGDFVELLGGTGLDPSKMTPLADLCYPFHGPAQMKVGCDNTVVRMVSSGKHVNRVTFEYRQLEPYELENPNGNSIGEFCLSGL

[5] = molecular target: T1, Corticotropin-releasing factor receptor 2/Corticotropin-releasing factor-binding protein; test: activators of CRF receptor 2 with binding protein – uHTS hits, confirmation (AID 602473); format: functional; conditions: read-out: EC50_Mean
[6] = CRF-BP/CRF-R2 complex antagonists, dose response, cell-based, uHTS hits, 384-well (AID 651639); format: functional, Homo sapiens; conditions: read-out: IC50_Mean
[7] = molecular target: Photoreceptor-specific nuclear receptor (Homo sapiens, UniProt Q9Y5X4); format: functional, cell-based;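 note: CHO-S cells with Gal4-NCOR and VP16-NR2E3 two-hybrid luciferase reporter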
Sequence of Photoreceptor-specific nuclear receptor (Q9Y5X4 whole entry, the tested form may be a part): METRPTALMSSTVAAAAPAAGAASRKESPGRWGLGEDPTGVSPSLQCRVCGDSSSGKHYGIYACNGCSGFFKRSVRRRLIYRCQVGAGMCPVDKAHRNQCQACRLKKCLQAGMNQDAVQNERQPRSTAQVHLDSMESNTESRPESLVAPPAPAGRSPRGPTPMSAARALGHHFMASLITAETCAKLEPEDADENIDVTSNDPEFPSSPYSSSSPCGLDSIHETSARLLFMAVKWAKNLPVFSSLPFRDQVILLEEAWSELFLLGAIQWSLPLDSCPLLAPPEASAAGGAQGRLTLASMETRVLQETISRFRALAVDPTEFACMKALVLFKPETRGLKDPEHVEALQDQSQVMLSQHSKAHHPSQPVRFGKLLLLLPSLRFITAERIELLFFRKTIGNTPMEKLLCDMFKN

[8] = molecular target: Peroxisome proliferator-activated receptor gamma/Nuclear receptor coactivator 1 (Homo sapiens, UniProt P37231); test: (§1) TR-FRET dose response biochemical High Throughput Screening assay for agonists of the steroid receptor coactivator 1 (SRC-1) recruitment by the peroxisome proliferator-activated receptor gamma (PPAR gamma): non-selective agonists. [Related pubchem assays (depositor defined):AID1300, AID1808, AID504735, AID631]; format: protein assay
Sequence of Peroxisome proliferator-activated receptor gamma/Nuclear receptor coactivator 1 (P37231 whole entry): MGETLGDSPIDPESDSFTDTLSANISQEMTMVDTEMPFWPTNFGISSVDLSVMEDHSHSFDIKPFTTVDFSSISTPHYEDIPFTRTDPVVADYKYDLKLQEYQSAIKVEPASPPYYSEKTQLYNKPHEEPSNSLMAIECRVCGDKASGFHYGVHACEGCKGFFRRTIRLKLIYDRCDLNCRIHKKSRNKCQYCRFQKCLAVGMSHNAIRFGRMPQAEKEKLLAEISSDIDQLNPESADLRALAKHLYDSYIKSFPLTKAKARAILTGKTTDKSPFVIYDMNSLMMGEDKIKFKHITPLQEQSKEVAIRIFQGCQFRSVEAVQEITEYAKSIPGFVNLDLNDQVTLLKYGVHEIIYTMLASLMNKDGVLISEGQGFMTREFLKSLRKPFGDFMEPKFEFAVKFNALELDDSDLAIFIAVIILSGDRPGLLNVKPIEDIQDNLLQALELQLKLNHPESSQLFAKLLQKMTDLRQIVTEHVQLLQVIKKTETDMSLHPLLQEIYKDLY
Sequence of Peroxisome proliferator-activated receptor gamma/Nuclear receptor coactivator 1 (Q15788 whole entry, further chain): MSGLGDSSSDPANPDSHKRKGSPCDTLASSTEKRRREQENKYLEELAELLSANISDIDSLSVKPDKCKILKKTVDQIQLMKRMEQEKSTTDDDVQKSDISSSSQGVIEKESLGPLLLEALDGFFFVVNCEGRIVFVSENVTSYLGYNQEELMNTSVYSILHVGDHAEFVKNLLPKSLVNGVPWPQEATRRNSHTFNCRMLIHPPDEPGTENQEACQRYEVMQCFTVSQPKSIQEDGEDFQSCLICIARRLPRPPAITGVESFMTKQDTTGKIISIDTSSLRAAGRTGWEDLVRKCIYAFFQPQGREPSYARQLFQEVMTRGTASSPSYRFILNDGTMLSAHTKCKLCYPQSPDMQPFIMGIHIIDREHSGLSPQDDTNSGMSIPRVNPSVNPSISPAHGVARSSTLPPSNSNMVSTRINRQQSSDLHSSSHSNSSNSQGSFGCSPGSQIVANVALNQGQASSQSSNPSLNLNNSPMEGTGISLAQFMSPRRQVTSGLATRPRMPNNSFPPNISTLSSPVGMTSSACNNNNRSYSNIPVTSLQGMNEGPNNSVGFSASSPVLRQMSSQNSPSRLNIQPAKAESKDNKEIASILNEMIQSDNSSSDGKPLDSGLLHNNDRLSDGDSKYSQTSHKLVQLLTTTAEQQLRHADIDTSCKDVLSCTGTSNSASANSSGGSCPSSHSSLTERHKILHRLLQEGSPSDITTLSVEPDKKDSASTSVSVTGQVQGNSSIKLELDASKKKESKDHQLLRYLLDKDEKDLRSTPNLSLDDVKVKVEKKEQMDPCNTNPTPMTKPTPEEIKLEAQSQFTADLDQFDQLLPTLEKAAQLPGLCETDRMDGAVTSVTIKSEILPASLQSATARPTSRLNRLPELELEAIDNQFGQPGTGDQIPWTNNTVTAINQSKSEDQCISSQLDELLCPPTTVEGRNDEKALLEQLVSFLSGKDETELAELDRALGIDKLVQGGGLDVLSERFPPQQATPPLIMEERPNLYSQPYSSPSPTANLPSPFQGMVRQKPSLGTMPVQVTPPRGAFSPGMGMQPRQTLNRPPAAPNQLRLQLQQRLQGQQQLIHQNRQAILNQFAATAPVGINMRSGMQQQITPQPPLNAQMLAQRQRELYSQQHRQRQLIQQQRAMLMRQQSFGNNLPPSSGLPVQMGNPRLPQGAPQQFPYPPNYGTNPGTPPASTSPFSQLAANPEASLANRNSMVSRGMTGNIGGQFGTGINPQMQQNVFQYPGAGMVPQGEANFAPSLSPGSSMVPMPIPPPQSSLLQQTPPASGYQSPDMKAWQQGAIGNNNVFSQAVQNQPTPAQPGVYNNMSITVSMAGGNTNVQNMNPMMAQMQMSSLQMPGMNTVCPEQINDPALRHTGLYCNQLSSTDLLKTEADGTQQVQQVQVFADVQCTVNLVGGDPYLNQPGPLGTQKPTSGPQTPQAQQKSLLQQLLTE

[9] = molecular target: Peroxisome proliferator-activated receptor gamma/Nuclear receptor coactivator 3 (Homo sapiens, UniProt P37231); test: as §1, with “3 (SRC-3)” for “1 (SRC-1)”, “assays: 1301 (Confirmation screen.), 1048 (Primary screen.)]” for “assays (depositor defined):AID1300, AID1808, AID504735, AID631]”; format: functional
[10] = molecular target: Peroxisome proliferator-activated receptor gamma/Nuclear receptor coactivator 2 (Homo sapiens, UniProt P37231); test: TR-FRET dose response biochemical High Throughput Screening assay for agonists of the steroid receptor coactivator 2 (SRC-2) recruitment by the peroxisome proliferator-activated receptor gamma (PPAR gamma): non-selective agonists. [Related pubchem assays: 1297, 1032 ]; format: functional
Sequence of Peroxisome proliferator-activated receptor gamma/Nuclear receptor coactivator 2 (P37231 whole entry): as the sequence (P37231 whole entry) above
Sequence of Peroxisome proliferator-activated receptor gamma/Nuclear receptor coactivator 2 (Q15596 whole entry, further chain): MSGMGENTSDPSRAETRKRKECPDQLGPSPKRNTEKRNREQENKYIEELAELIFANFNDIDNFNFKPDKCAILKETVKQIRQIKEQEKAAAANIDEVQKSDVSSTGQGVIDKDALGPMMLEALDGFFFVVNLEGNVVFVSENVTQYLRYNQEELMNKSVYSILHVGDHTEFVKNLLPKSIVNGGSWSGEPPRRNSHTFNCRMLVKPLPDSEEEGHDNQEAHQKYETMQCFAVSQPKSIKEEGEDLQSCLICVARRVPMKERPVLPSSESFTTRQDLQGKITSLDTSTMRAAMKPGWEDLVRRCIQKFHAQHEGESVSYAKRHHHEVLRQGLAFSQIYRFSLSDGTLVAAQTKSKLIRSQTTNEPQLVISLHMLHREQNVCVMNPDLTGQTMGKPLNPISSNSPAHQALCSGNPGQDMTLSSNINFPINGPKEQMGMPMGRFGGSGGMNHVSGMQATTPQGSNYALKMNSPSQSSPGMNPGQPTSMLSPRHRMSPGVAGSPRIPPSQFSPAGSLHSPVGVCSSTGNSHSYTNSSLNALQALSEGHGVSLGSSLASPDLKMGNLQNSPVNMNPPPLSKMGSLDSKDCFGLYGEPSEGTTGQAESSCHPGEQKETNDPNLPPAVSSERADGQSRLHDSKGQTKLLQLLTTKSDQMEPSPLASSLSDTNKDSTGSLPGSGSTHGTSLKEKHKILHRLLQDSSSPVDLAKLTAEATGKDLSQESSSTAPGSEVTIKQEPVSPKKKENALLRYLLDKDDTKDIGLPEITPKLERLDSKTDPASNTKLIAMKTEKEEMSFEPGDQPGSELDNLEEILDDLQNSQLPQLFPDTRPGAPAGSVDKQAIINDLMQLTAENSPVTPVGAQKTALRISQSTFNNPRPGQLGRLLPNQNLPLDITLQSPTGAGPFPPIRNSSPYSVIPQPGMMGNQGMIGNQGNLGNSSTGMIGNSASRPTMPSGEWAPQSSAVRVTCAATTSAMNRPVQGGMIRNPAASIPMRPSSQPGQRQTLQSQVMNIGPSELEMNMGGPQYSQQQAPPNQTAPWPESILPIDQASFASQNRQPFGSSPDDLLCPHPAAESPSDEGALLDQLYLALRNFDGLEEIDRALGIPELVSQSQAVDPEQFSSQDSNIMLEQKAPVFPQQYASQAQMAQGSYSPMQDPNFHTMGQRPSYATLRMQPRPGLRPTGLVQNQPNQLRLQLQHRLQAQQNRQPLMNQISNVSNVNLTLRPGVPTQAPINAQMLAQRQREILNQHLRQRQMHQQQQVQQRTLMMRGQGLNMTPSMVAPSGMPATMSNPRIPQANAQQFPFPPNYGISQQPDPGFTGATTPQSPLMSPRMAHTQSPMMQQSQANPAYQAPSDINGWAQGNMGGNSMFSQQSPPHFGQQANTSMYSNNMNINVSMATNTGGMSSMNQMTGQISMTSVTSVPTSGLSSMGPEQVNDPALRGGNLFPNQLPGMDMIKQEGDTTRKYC

Protein Wnt-3a = Protein Wnt-3a (Mus musculus, UniProt P27467); test: Wnt3a-driven reporter signaling inhibition, dose response, selectivity assay for Gli-SUFU antagonist project, Wnt-LIGHT cells, luminescence (AID 651570); format: functional; conditions: read-out: IC50_Mean;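 note: Wnt-LIGHT reporter cells stimulated with conditioned medium from Wnt3a-producing cells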
cells [11] = format: functional, cell-based
cells [12] = format: functional, cell-based; remark: listed apart in the source
Caspase-3 = molecular target: T2, Caspase-3 (Homo sapiens, UniProt P42574); test: caspase-3 inhibitors as off-family protease, SAR follow-up, selectivity assay for SENP protease inhibitor project, biochemical, luminescence, set 2 (AID 588599); format: functional
T2 sequence (P42574 whole entry): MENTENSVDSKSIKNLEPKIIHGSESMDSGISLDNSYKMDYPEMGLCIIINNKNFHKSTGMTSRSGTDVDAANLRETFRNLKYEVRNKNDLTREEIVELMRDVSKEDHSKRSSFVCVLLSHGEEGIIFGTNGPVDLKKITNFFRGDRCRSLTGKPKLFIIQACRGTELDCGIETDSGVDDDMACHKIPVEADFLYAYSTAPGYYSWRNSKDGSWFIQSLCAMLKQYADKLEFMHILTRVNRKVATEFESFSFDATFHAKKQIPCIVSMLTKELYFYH

[13] = molecular target: T3, Sentrin-specific protease 8 (Homo sapiens, UniProt Q96LD8); test: SENP8 protease inhibitors, SAR follow-up, biochemical, luminescence, set 2 (AID 588601); format: functional
T3 sequence (Q96LD8 whole entry): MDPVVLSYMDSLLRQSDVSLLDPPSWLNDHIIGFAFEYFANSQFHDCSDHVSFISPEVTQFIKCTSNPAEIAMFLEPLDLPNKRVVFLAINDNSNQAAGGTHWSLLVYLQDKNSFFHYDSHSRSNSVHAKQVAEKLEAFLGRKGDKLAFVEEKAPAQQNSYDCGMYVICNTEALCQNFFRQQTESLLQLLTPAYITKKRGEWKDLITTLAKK

[14] = molecular target: T4, Sentrin-specific protease 7 (Homo sapiens, UniProt Q9BQF6); test: SENP7 protease inhibitors, SAR follow-up, biochemical, luminescence, set 2 (AID 588600); format: functional
T4 sequence (Q9BQF6 whole entry): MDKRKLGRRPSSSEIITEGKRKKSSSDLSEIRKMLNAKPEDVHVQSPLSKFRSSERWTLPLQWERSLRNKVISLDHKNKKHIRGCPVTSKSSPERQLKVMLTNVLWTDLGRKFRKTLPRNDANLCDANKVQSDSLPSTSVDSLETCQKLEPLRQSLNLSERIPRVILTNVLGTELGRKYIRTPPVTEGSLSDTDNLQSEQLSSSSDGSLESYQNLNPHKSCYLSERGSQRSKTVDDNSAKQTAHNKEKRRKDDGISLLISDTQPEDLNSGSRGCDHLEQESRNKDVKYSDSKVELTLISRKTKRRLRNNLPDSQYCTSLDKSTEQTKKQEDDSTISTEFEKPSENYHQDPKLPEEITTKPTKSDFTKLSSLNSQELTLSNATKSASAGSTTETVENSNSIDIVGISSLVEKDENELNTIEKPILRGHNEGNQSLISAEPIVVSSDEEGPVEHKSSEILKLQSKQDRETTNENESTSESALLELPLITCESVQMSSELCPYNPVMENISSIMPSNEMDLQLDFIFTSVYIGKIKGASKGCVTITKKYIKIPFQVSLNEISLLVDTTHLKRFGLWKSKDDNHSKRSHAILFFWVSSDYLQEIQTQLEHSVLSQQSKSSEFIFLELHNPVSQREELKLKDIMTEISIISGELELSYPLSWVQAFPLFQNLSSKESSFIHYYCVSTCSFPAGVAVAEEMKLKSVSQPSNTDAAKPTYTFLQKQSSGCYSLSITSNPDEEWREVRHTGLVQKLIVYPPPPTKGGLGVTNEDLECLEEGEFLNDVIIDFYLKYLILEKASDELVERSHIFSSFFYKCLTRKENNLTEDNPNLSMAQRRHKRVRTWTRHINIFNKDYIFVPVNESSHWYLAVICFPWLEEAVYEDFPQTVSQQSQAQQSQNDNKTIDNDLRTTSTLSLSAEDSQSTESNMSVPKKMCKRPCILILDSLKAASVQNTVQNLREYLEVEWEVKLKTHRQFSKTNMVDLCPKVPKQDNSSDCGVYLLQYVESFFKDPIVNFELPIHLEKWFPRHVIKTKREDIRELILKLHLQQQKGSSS

[15] = molecular target: T5, Sentrin-specific protease 6 (Homo sapiens, UniProt Q9GZR1); test: SENP6 protease inhibitors, SAR follow-up, biochemical, luminescence, set 2 (AID 588598); format: functional
T5 sequence (Q9GZR1 whole entry): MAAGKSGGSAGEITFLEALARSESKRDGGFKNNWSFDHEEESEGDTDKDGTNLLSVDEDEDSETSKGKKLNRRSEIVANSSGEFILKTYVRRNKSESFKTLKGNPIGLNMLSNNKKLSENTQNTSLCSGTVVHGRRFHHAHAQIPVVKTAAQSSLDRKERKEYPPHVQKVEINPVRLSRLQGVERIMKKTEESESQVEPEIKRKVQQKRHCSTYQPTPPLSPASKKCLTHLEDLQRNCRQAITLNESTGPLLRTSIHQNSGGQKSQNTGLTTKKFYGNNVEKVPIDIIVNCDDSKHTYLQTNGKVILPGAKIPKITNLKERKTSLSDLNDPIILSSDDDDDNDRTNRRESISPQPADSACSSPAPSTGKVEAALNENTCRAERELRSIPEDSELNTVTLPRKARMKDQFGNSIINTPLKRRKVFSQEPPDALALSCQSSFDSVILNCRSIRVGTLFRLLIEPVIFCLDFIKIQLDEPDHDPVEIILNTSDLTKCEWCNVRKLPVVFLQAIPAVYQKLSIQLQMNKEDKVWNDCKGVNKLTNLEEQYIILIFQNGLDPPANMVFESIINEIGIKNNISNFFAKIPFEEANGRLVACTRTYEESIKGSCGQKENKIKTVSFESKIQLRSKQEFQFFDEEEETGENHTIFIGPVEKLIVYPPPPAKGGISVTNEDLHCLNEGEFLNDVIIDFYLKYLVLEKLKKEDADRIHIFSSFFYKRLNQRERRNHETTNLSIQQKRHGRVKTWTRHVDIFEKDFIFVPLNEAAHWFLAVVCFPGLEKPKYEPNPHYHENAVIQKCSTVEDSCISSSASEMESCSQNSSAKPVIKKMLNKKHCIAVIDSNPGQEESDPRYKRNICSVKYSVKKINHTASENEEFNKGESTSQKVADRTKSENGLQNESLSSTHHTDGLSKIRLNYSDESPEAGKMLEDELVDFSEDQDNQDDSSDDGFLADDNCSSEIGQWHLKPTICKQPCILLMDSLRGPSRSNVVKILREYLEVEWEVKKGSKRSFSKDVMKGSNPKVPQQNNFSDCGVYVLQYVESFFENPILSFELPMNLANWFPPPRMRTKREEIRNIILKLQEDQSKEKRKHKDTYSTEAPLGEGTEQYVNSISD

[16] = molecular target: Mitogen-activated protein kinase 10 (Homo sapiens, UniProt P53779); test: Dose response biochemical screening assay for inhibitors of c-Jun N-Terminal Kinase 3 (JNK3). [Related pubchem assays: 746 ]
Interleukin-8 = molecular target: T6, Interleukin-8 (Homo sapiens, UniProt P10145); test: Dose Response confirmation of uHTS small molecule hits for cystic fibrosis induced NFkb Inhibitors in a PAF-induced IL8 counterscreen.; format: functional; conditions: read-out: IC50_Mean
T6 sequence (P10145 whole entry): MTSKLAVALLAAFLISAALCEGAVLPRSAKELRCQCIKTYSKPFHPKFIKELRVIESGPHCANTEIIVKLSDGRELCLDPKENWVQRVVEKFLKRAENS

[17] = inhibitors of HIV Env-driven cell fusion, dose response, cherry-pick (AID 652057); format: functional, cell-based
[18] = off-target signal loss in HeLa-CEM21 co-culture – HeLa F-luc CTL cells, cherry-picked, counter-screen for HIV-1 Env fusion inhibitor project, dose response (AID 652040); format: functional, cell-based;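 note: potency for signal decrease marking cytotoxic or nonspecific inhibition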
[19] = inhibitors of clade B AD8 Env fusion, dose response, cell-based, cherry-pick (AID 652062); format: functional;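 note: luciferase signal from cell-cell fusion driven by HIV-1 clade B AD8 Env; potency is for inhibitors of fusion seen as a drop in luminescence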
H9c2 = test: cells; format: functional, cell-based; conditions: Rattus norvegicus, H9c2, Myocardium;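 note: confirmatory concentration-response retest of ultra-high-throughput screening hits for modulation of myocardial damage; cell death induced by hydrogen peroxide oxidative stress; compound pretreatment for 60 min then peroxide exposure for 2 h; potency is for protecting the cells against peroxide damage rather than for killing them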
Melanocortin receptor 4 = Melanocortin receptor 4 (Homo sapiens, UniProt P32245); format: functional, cell-based;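 note: Cell-based assay with luminescence read-out, confirmatory dose-response testing for agonist activity of biased ligands at MC4R; human U2OS cells with tagged receptor and beta-arrestin; potency of agonists that increase receptor coupling to beta-arrestin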

Sequence of Adenosylmethionine-8-amino-7-oxononanoate aminotransferase (P9WQ81 whole entry): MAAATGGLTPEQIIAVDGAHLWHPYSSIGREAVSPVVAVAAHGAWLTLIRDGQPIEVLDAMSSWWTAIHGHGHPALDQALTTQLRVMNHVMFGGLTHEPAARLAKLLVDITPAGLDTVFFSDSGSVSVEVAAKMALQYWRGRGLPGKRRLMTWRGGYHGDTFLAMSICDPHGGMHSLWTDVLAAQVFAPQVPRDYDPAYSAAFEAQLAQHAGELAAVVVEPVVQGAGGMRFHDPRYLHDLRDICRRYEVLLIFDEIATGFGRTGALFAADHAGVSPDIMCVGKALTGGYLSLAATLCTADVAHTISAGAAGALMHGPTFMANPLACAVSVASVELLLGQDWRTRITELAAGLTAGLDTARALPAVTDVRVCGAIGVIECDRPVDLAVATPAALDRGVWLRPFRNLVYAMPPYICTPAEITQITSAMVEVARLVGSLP

In the case of `O=C(Nc1ccc(F)c(F)c1)C1CCN(S(=O)(=O)c2cccs2)CC1`, the AC50 [1] was 0.564 µM (active).

In the case of `Cc1ccccc1/C=N/N1C(=O)CSC1=S`, the AC50 [2] was 135 µM (active) and the AC50 [3] was 109 µM (active).

In the case of `O=[N+]([O-])c1ccc(NS(=O)(=O)c2ccccc2)c(Cl)c1`, the IC50 [4] was 4.45 µM (active), the EC50 [5] was > 53 µM (inactive) and the IC50 [6] was > 20 µM (inactive). The IC50 [7] was 3.22 µM (active).

In the case of `CCOC(=O)CSc1c(-c2cccs2)[nH]c2ccccc12`, the EC50 [8] was 13.2 µM (inactive), the EC50 [9] was 53.8 µM (not active) and the EC50 [10] was 13.8 µM (not active). The IC50 (Protein Wnt-3a) was 17 µM (active).

For `CN(/N=C/c1c[nH]c2ccccc12)c1cnn(-c2ccc(F)c(Cl)c2)c(=O)c1Cl`, the EC50 (cells [11]) was > 350 µM (not active), the EC50 (cells [12]) was 55.6 µM (active) and the IC50 (Caspase-3) was > 99 µM (inactive). The IC50 [13] was > 99 µM (inactive), the IC50 [14] was > 99 µM (inactive) and the IC50 [15] was > 99 µM (inactive).

With `CC(=O)c1ccc(C(=O)N2CCCC(Nc3ccc(C(C)C)cc3)C2)s1` (stereo not drawn) the EC50 (cells [11]) was > 350 µM (not active), the EC50 (cells [12]) was > 350 µM (not active) and the AC50 [1] was 0.833 µM (active).

For `COc1ccc2ncn(-c3ccccc3)c2c1`, the IC50 [16] was 34.9 µM (not active), the IC50 (Interleukin-8) was 17.3 µM (inactive) and the AC50 [17] was 11.6 µM (active). The AC50 [18] was 20.1 µM (active) and the AC50 [19] was 40.2 µM (active).

In the case of `O=C1NC(=O)C(=Cc2ccc(Cl)cc2Cl)S1`, the IC50 [7] was 4.65 µM (active).

For `COc1cccc(-c2cnc3c(NC=O)cc(-c4ccc(O)c(OC)c4)cn23)c1`, the IC50 (H9c2) was > 79 µM (inactive) and the EC50 (Melanocortin receptor 4) was > 89.2 µM (inactive).
